A short description of this data set: xn = mol fraction of the nth substance listed. The note with it: 101 kPa.

We go through 2 compounds from a compilation of properties of binary mixtures (doi:10.1016/j.tca.2014.09.015).

Consider `O` + CCOS(=O)(=O)[O-].CC[N+]1(C)CCOCC1, for which the viscosity (303.15 K, x1 = 1) is 0.81 mPa·s and the viscosity (313.15 K, x1 = 1) was 0.68 mPa·s.
In the case of `CCOS(=O)(=O)[O-].CC[N+]1(C)CCOCC1` + O, the viscosity runs as follows: (298.15 K, x2 = 0.2761) 690 mPa·s; (298.15 K, x2 = 0.8745) 7.7 mPa·s; (303.15 K, x2 = 0.5594) 94 mPa·s; (303.15 K, x2 = 0.8745) 6.5 mPa·s; (308.15 K, x2 = 0.5594) 72 mPa·s; (323.15 K, x2 = 0.7786) 8.8 mPa·s. In addition, the viscosity reads like this: (328.15 K, x2 = 0) 780 mPa·s; (328.15 K, x2 = 0.7786) 7.6 mPa·s; (338.15 K, x2 = 0.2761) 86 mPa·s; (343.15 K, x2 = 0.2761) 69 mPa·s.
